The target of one assay is b-Raf (V600E) (Homo sapiens (Human), UniProt P15056, V600E). Briefly: In vitro Raf activity determination (Alpha Screen, phospho-MEK), b-Raf (V600E). In kind it is biochemical. Particulars: ATP 10 μM, 60 min pre-incubation, 3 hours reaction. The text has this:
The activity of a compound according to the present invention can be assessed by well-known in vitro & in vivo methods. Raf inhibition data provided herein was obtained using the following procedures.
Sf9 cells co-expressing both proteins were lysed and subjected to immobilized nickel chromatography and eluted with Imidazole. A second column (StrepII binding column) was used and eluted with desthiobiotin. Protein Tags were removed using Prescission enzyme and the protein was further purified using a flowthrough step to remove tags.
Full length MEK1 with an inactivating K97R ATP binding site mutation is utilized as a RAF substrate. The MEK1 cDNA was subcloned with an N-terminal (his)6 tag into a vector for E. Coli expression. The MEK1 substrate was purified from E. Coli lysate by nickel affinity chromatography followed by anion exchange. The final MEK1 preparation was biotinylated (Pierce EZ-Link Sulfo-NHS-LC-Biotin) and concentrated.
The plate was incubated for 60 minutes at room temperature. […] The additions were carried out under dark conditions to protect the detection beads from light. A lid was placed on top of the plate and incubated for 1 hour at room temperature, after which the luminescence was read on a PerkinElmer Envision instrument.

The next assay concerns the target C-Raf FL (Homo sapiens (Human), UniProt P04049, Y340E/Y341E). As to the kind of experiment: In vitro Raf activity determination (Alpha Screen, phospho-MEK), C-Raf FL (full length, Y340E/Y341E). It counts as biochemical. Particulars: ATP 1 μM; 60 min pre-incubation; 1 hour reaction; column head does not say FL or TR. Summed up: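 Read-out is AlphaScreen luminescence using rabbit anti-p-MEK with protein A beads after EDTA stop, with IC50 fitted by non-linear regression. Reaction: Sf9-derived C-Raf plus biotinylated E. coli MEK1 K97R substrate, pH 7.5 Tris/MgCl2/DTT buffer, compound preincubated 60 min at room temperature.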

Experimental findings from patent US10167279B2 (NOVARTIS AG, priority 2014, dated 2019) are described below.

Molecules are shown by their SMILES. pIC50: −log10 of the molar value.

Chain of C-Raf FL (P04049 whole entry Y340E/Y341E): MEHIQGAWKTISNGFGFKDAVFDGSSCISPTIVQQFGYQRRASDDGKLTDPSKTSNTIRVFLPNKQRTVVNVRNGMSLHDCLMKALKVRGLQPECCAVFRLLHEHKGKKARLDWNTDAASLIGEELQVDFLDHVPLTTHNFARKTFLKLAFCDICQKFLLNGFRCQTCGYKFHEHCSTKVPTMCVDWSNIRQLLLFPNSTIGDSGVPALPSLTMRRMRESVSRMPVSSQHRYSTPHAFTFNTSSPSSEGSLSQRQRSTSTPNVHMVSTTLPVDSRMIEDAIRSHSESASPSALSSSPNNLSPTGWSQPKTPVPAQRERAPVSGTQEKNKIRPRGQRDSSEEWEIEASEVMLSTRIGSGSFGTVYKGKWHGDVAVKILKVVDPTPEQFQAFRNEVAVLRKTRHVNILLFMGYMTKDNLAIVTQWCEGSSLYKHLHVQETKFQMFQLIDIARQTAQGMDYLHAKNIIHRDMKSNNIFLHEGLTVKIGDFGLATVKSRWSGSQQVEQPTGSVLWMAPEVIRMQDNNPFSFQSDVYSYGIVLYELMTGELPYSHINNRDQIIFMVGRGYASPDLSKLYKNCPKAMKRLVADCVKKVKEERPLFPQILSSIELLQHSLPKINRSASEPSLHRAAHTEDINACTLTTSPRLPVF
Chain of C-Raf FL (P63104 whole entry partner): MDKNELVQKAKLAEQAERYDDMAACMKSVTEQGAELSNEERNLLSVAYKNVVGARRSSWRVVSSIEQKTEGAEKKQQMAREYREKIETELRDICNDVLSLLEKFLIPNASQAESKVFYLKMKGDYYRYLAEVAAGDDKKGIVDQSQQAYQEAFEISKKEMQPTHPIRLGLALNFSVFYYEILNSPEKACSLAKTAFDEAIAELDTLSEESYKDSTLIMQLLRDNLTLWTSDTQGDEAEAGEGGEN
Chain of b-Raf (V600E) (P15056 whole entry V600E): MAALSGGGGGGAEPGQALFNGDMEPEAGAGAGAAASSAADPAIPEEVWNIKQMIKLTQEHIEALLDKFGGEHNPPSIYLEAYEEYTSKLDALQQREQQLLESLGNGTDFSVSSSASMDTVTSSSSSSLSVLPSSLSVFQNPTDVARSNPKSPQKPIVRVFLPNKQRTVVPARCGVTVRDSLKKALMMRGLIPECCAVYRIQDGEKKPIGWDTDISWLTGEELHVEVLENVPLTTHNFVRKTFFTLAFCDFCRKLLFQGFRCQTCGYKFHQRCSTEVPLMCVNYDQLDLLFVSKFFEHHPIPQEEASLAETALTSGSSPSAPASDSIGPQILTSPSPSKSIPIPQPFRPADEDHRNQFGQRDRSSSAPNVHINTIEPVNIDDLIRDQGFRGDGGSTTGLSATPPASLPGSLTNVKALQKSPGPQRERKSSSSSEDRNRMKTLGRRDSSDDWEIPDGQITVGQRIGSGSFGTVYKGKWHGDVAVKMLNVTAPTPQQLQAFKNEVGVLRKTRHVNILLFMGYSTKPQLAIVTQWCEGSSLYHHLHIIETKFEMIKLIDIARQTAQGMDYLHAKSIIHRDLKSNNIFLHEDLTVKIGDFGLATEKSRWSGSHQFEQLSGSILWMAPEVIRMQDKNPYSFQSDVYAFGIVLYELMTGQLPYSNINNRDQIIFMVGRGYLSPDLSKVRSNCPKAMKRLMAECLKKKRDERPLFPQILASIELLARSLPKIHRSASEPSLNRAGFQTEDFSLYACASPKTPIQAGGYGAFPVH

`Cc1ccc(NC(=O)c2ccnc(C(C)(C)C#N)c2)cc1-c1cnc(OC2CCOCC2)c(C2(O)COC2)c1` [Example 33, 2-(2-cyanopropan-2-yl)-N-(3-(5-(3-hydroxyoxetan-3-yl)-6-((tetrahydro-2H-pyran-4-yl)oxy)pyridin-3-yl)-4-methylphenyl)isonicotin-amide]: the negative-log IC50 (pIC50) at b-Raf (V600E) was 8.67; at C-Raf FL it was 9.09.
The like results for `Cc1ncc(NC(=O)c2ccnc(C(C)(C)C#N)c2)cc1-c1cnc(OC2CCOCC2)c(C2(O)COC2)c1` [Example 34, 2-(2-cyanopropan-2-yl)-N-(5′-(3-hydroxyoxetan-3-yl)-2-methyl-6′-((tetrahydro-2H-pyran-4-yl)oxy)-[3,3′-bipyridin]-5-yl)isonicotinamide] were, in that order, 7.69 and 8.12.
Take `Cc1ccc(NC(=O)c2ccnc(C(F)(F)F)c2)cc1-c1cnc(OC2CCOCC2)c(C2(O)COC2)c1` [Example 35, N-(3-(5-(3-hydroxyoxetan-3-yl)-6-((tetrahydro-2H-pyran-4-yl)oxy)pyridin-3-yl)-4-methylphenyl)-2-(trifluoromethyl)isonicotin-amide]: the negative-log IC50 (pIC50) against b-Raf (V600E) is 9.02; against C-Raf FL, 9.53.
Take `Cc1ncc(NC(=O)c2cccc(C(F)(F)F)c2)cc1-c1cnc(OCCO)c(C2(O)COC2)c1` [Example 36, N-(6′-(2-hydroxyethoxy)-5′-(3-hydroxyoxetan-3-yl)-2-methyl-[3,3′-bipyridin]-5-yl)-3-(trifluoromethyl)benzamide]: the pIC50 on b-Raf (V600E) is 7.92; against C-Raf FL it was 8.74.
In the same order, the values of `Cc1ncc(NC(=O)c2cccc(C(F)(F)F)c2)cc1-c1cnc(OCCO)c(C2(F)COC2)c1` [Example 37, N-(5′-(3-fluorooxetan-3-yl)-6′-(2-hydroxyethoxy)-2-methyl-[3,3′-bipyridin]-5-yl)-3-(trifluoromethyl)benzamide] are 8.73 and 9.45.
For the molecule `Cc1ncc(NC(=O)c2ccnc(C(F)(F)F)c2)cc1-c1cnc(OCCO)c(C2(F)COC2)c1` [Example 38, N-(5′-(3-fluorooxetan-3-yl)-6′-(2-hydroxyethoxy)-2-methyl-[3,3′-bipyridin]-5-yl)-2-(trifluoromethyl)isonicotin-amide], the pIC50 on b-Raf (V600E) is 8.32; against C-Raf FL, 9.14.
`Cc1ncc(NC(=O)c2ccnc(C(C)(F)F)c2)cc1-c1cnc(OCCO)c(C2(F)COC2)c1` [Example 39, 7-(1,1-difluoroethyl)-N-(5′-(3-fluorooxetan-3-yl)-6′-(2-hydroxyethoxy)-2-methyl-[3,3′-bipyridin]-5-yl)isonotinamide]: the pIC50 against b-Raf (V600E) is 8.23; against C-Raf FL it was 8.93.
In the same order, the values of `COc1ncc(-c2cc(NC(=O)c3ccnc(C(C)(C)F)c3)cnc2C)cc1C1(C(F)F)COC1` [Example 42, N-(5′-(3-(difluoromethyl)oxetan-3-yl)-6′-methoxy-2-methyl-[3,3′-bipyridin]-5-yl)-2-(2-fluoropropan-2-yl)isonicotinamide] are 8.85 and 9.61.
`COc1ncc(-c2cc(NC(=O)c3ccnc(C(C)(C)C#N)c3)ccc2C)cc1C1(C=O)COC1` [Example 43, 2-(2-cyanopropan-2-yl)-N-(3-(5-(3-formyloxetan-3-yl)-6-methoxypyridin-3-yl)-4-methylphenyl)isonicotin-amide]: the pIC50 is 7.99 against b-Raf (V600E) and 8.57 against C-Raf FL.
As for `Cc1ncc(NC(=O)c2cccc(C(F)(F)F)c2)cc1-c1cc(C2(F)COC2)c(=O)n(CCCO)c1` [Example 44, N-(5′-(3-fluorooxetan-3-yl)-1′-(3-hydroxypropyl)-2-methyl-6′-oxo-1′,6′-dihydro-[3,3′-bipyridin]-5-yl)-3-(trifluoromethyl)benzamide], the pIC50 at b-Raf (V600E) was 7.17; against C-Raf FL, 8.06.
Take `Cc1ncc(NC(=O)c2cccc(C(F)(F)F)c2)cc1-c1cc(C2(F)COC2)c(=O)n(CC(O)CO)c1` (centres unmarked) [Example 45, N-(1′-(2,3-dihydroxypropyl)-5′-(3-fluorooxetan-3-yl)-2-methyl-6′-oxo-1′,6′-dihydro-[3,3′-bipyridin]-5-yl)-3-(trifluoromethyl)benzamide]: the pIC50 at b-Raf (V600E) is 5.93; against C-Raf FL it was 6.92.
In the same order, the values of `COc1ncc(-c2cc(NC(=O)c3cccc(C(F)(F)F)c3)cnc2C)cc1C1(CF)COC1` [Example 49, N-(5′-(3-(fluoromethyl)oxetan-3-yl)-6′-methoxy-2-methyl-[3,3′-bipyridin]-5-yl)-3-(trifluoromethyl)benzamide] are 9.33 and 9.93.
The like results for `Cc1ccc(NC(=O)c2ccnc(C(C)(C)O)c2)cc1-c1cc(C2(C)COC2)c2nccn2n1` [Example 62, 2-(2-hydroxypropan-2-yl)-N-(4-methyl-3-(8-(3-methyloxetan-3-yl)imidazo[1,2-b]pyridazin-6-yl)phenyl)isonicotinamide] were, in that order, 8.42 and 9.15.
In the same order, the values of `CCOc1ncc(-c2cc(NC(=O)c3ccnc(C(F)(F)F)c3)cnc2C)cc1C1(C)COC1` [Example 63, N-(6′-ethoxy-2-methyl-5′-(3-methyloxetan-3-yl)-[3,3′-bipyridin]-5-yl)-2-(trifluoromethyl)isonicotin-amide] are 9.21 and 9.74.
For `CCOc1ncc(-c2cc(NC(=O)c3ccnc(C(C)(C)C#N)c3)cnc2C)cc1C1(C)COC1` [Example 64, 2-(2-cyanopropan-2-yl)-N-(6′-ethoxy-2-methyl-5′-(3-methyloxetan-3-yl)-[3,3′-bipyridin]-5-yl)isonicotinamide], the pIC50 against b-Raf (V600E) was 8.15; against C-Raf FL it was 8.93.
The like results for `CCOc1ncc(-c2cc(NC(=O)c3cnnc(C(C)(C)C#N)c3)cnc2C)cc1C1(C)COC1` [Example 65, 6-(2-cyanopropan-2-yl)-N-(6′-ethoxy-2-methyl-5′-(3-methyloxetan-3-yl)-[3,3′-bipyridin]-5-yl)pyridazine-4-carboxamide] were, in that order, 8.15 and 8.95.
In the same order, the values of `CCOc1ncc(-c2cc(NC(=O)c3cnnc(C(F)(F)F)c3)cnc2C)cc1C1(C)COC1` [Example 66, N-(6′-ethoxy-2-methyl-5′-(3-methyloxetan-3-yl)-[3,3′-bipyridin]-5-yl)-6-(trifluoromethyl)pyridazine-4-carboxamide] are 8.84 and 9.59.
In the same order, the values of `CCOc1ncc(-c2cc(NC(=O)c3cnnc(C(F)(F)F)c3)ccc2C)cc1C1(C)COC1` [Example 67, N-(3-(6-ethoxy-5-(3-methyloxetan-3-yl)pyridin-3-yl)-4-methylphenyl)-6-(trifluoromethyl)pyridazine-4-carboxamide] are 9.52 and 10.11.
On to `Cc1ncc(NC(=O)c2ccnc(C(C)(F)F)c2)cc1-c1cccc(C2(C)COC2)c1` [Example 68, 2-(1,1-difluoroethyl)-N-(6-methyl-5-(3-(3-methyloxetan-3-yl)phenyl)pyridin-3-yl)isonicotinamide], for which the pIC50 at b-Raf (V600E) was 8.43; at C-Raf FL, 9.21.
Turning to `Cc1ncc(NC(=O)c2ccnc(C(C)(C)F)c2)cc1-c1cccc(C2(C)COC2)c1` [Example 69, 2-(2-fluoropropan-2-yl)-N-(6-methyl-5-(3-(3-methyloxetan-3-yl)phenyl)pyridin-3-yl)isonicotinamide], the pIC50 was 8.29 against b-Raf (V600E) and 9.05 on C-Raf FL.
As for `Cc1ncc(NC(=O)c2ccnc(C(C)(F)F)c2)cc1-c1cccc(C2COC2)c1` [Example 70, 2-(1,1-difluoroethyl)-N-(6-methyl-5-(3-(oxetan-3-yl)phenyl)pyridin-3-yl)isonicotinamide], the pIC50 is 7.89 against b-Raf (V600E) and 8.80 against C-Raf FL.
The like results for `COc1ncc(-c2cc(NC(=O)c3ccnc(C(F)(F)F)c3)ccc2C)cc1C1(O)COC1` [Example 71, N-(3-(5-(3-hydroxyoxetan-3-yl)-6-methoxypyridin-3-yl)-4-methylphenyl)-2-(trifluoromethyl)isonicotin-amide] were, in that order, 8.55 and 9.45.
In the same order, the values of `COc1ncc(-c2cc(NC(=O)c3ccnc(C(C)(C)C#N)c3)ccc2C)cc1C1(O)COC1` [Example 72, 2-(2-cyanopropan-2-yl)-N-(3-(5-(3-hydroxyoxetan-3-yl)-6-methoxypyridin-3-yl)-4-methylphenyl)isonicotin-amide] are 8.38 and 8.99.
In the same order, the values of `COc1ncc(-c2cc(NC(=O)c3ccnc(C(C)(C)O)c3)ccc2C)cc1C1(O)COC1` [Example 73, N-(3-(5-(3-hydroxyoxetan-3-yl)-6-methoxypyridin-3-yl)-4-methylphenyl)-2-(2-hydroxypropan-2-yl)isonicotinamide] are 7.63 and 8.51.
For `COc1ncc(-c2cc(NC(=O)c3ccnc(C(C)(F)F)c3)ccc2C)cc1C1(O)COC1` [Example 74, 2-(1,1-difluoroethyl)-N-(3-(5-(3-hydroxyoxetan-3-yl)-6-methoxypyridin-3-yl)-4-methylphenyl)isonicotin-amide], the negative-log IC50 (pIC50) at b-Raf (V600E) was 8.68; at C-Raf FL, 9.44.

For orientation: pIC50 means the negative decadic logarithm of the IC50, by convention in mol/L. Low values mean a high IC50, high ones a low IC50.
